Test system: E. coli DEB31
Test: Antibiotics susceptibility of biofilm-grown cells, plate counting (modified Whiteley method)
Format: cell-based, Escherichia coli
Conditions: for antibiotic concentration at which the number of living E. coli DEB31 equals that of wild-type MG1655 at the standard concentration: 24 h biofilm, then 10 h antibiotic at 30° C., MG1655 standard concentration: ampicillin 50, streptomycin 30, rifampicin 150 μg/ml
Protocol: The antibiotics susceptibility of the variants was measured using the modified technique developed by Whiteley (Whiteley M., Nature, 413, 860, 2001). In other words, 96-well polystyrene plates containing 0.2 ml of LB culture were inoculated with the variants to be incubated for 24 hours to allow biofilm formation. Each well was added with various concentrations of antibiotics ranging from 0.25 μg to 64 μg and were incubated for 10 hours. The number of living cells was measured by plate counting method.
After incubating the variants in 96-well plates containing 200 μl of LB medium for 24 hours, the serial diluted antibiotics was added to each well at the following concentration ranges: ampicillin, from 0 to 128 μg/ml; streptomycin, from 0 to 64 μg/ml; and rifampicin, from 0 to 256 μg/ml. The cells were incubated for additional 10 hours at 30° C. after antibiotics addition. Then, the number of the living E. coli variants was counted using the standard plate counting method.

Compound | antibiotic concentration at which the number of living E. coli DEB31 equals that of wild-type MG1655 at the standard concentration | increase of antibiotics susceptibility versus wild-type MG1655 (DEB31 / biofilm-deficient variants vs MG1655)
CC1(C)S[C@@H]2[C@H](NC(=O)[C@H](N)c3ccccc3)C(=O)N2[C@H]1C(=O)O [ampicillin] | 2 µg/mL | –
[H]/N=C(/N)N[C@H]1[C@H](O)[C@@H](O)[C@H](O[C@@H]2O[C@@H](C)[C@](O)(C=O)[C@H]2O[C@@H]2O[C@@H](CO)[C@H](O)[C@@H](O)[C@@H]2NC)[C@@H](N/C(N)=N\[H])[C@@H]1O [streptomycin] | 8 µg/mL | –
CO[C@H]1/C=C/O[C@@]2(C)Oc3c(C)c(O)c4c(O)c(c(/C=N/N5CCN(C)CC5)c(O)c4c3C2=O)NC(=O)/C(C)=C\C=C\[C@H](C)[C@H](O)[C@@H](C)[C@@H](O)[C@@H](C)[C@H](OC(C)=O)[C@@H]1C [rifampicin] | 32 µg/mL | about 5 fold

— patent US20070287180A1, “Linear Dna Fragment For Markerless Deletion, Novel Strain Having Inhibited Formation Of Biofilm And Preparation Method Thereof” (priority 2004, published 2007)
